Experimental data as given in the NIST ThermoML archive (doi:10.1016/j.fluid.2008.02.001).
Several values for one entry are separate records, joined by “and”; a condition that tells them apart may be missing. Identical values can stand only once. Numbers after ± are expanded uncertainties.

Conditions: Liquid, Transpiration method

CCC(C)(C)OC(C)=O [1,1-dimethylpropyl acetate]
Conditions | vapor or sublimation pressure [kPa]
273.7 K | 0.3855 ± 0.029
274 K | 0.4017 ± 0.03
275.5 K | 0.4449 ± 0.032
277.5 K | 0.5063 ± 0.036
278.6 K | 0.5244 ± 0.037
279.5 K | 0.5659 ± 0.04
281.6 K | 0.6399 ± 0.045
283.5 K | 0.716 ± 0.051
283.6 K | 0.7353 ± 0.052
286.6 K | 0.878 ± 0.062
288.4 K | 0.9539 ± 0.067
289.7 K | 1.053 ± 0.074
292.7 K | 1.218 ± 0.086
293.5 K | 1.336 ± 0.095
295.8 K | 1.492 ± 0.1
298.4 K | 1.698 ± 0.13
298.8 K | 1.785 ± 0.13
301.9 K | 2.079 ± 0.15
303.4 K | 2.33 ± 0.16
304.9 K | 2.418 ± 0.17
307.9 K | 2.829 ± 0.21
308.4 K | 2.994 ± 0.22

CCCC(=O)OC(C)(C)CC [1,1-dimethylpropyl butanoate]
Conditions | vapor or sublimation pressure [kPa]
274.5 K | 0.04772 ± 0.0035
276.5 K | 0.05746 ± 0.0041
278.2 K | 0.06508 ± 0.0046
278.6 K | 0.06692 ± 0.0047
280.6 K | 0.07832 ± 0.0056
282.6 K | 0.09058 ± 0.0065
283.3 K | 0.09732 ± 0.0069
285.6 K | 0.1128 ± 0.0081
288.2 K | 0.1456 ± 0.01
288.7 K | 0.1441 ± 0.01
291.7 K | 0.1788 ± 0.013
293.2 K | 0.2021 ± 0.014
294.8 K | 0.22 ± 0.016
297.4 K | 0.2678 ± 0.019
298.2 K | 0.2935 ± 0.021
300.4 K | 0.3315 ± 0.024
303.2 K | 0.4074 ± 0.029
303.5 K | 0.402 ± 0.028
306.5 K | 0.4906 ± 0.035
308.2 K | 0.5588 ± 0.04
309.5 K | 0.5946 ± 0.042

CCC(=O)OC(C)(C)CC [1,1-dimethylpropyl propanoate]
Conditions | vapor or sublimation pressure [kPa]
273.9 K | 0.1147 ± 0.0082
274.9 K | 0.123 ± 0.0088
276.9 K | 0.1423 ± 0.01
278.9 K | 0.1651 ± 0.012
281 K | 0.1902 ± 0.013
283 K | 0.2208 ± 0.016
286 K | 0.2725 ± 0.019
289.1 K | 0.3316 ± 0.024
292.2 K | 0.4061 ± 0.029
295.2 K | 0.4966 ± 0.035
298.2 K | 0.5971 ± 0.042
301.2 K | 0.7239 ± 0.051
304.3 K | 0.8484 ± 0.06
307.4 K | 1.025 ± 0.072
310.4 K | 1.237 ± 0.087

CC(C)COC(=O)C(C)C [2-methylpropyl 2-methylpropanoate]
Conditions | vapor or sublimation pressure [kPa]
274.2 K | 0.1054 ± 0.0076
276.2 K | 0.1253 ± 0.009
278.2 K | 0.1479 ± 0.011
283.2 K | 0.2118 ± 0.015
288.2 K | 0.2962 ± 0.021
293.2 K | 0.4346 ± 0.031
298.2 K | 0.6003 ± 0.043
303.3 K | 0.8274 ± 0.059
308.4 K | 1.137 ± 0.08
311.2 K | 1.363 ± 0.096
313.4 K | 1.497 ± 0.11
316.2 K | 1.851 ± 0.13
319.2 K | 2.224 ± 0.16

CCCCOC(=O)C(C)CC (centres undefined) [butanoic acid, 2-methyl-, butyl ester]
Conditions | vapor or sublimation pressure [kPa]
274.2 K | 0.02305 ± 0.0016
276.2 K | 0.02587 ± 0.0019
278.2 K | 0.03181 ± 0.0023
280.2 K | 0.0362 ± 0.0026
283.2 K | 0.04723 ± 0.0034
288.1 K | 0.06951 ± 0.005
293.1 K | 0.1043 ± 0.0075
298.1 K | 0.1517 ± 0.011
303.2 K | 0.2142 ± 0.015
308.2 K | 0.3099 ± 0.022
313.3 K | 0.4305 ± 0.031
316.2 K | 0.5454 ± 0.039
319.2 K | 0.6694 ± 0.047

CCCCOC(=O)C(C)(C)C [butyl 2,2-dimethylpropanoate]
Conditions | vapor or sublimation pressure [kPa]
273.6 K | 0.0462 ± 0.0035
273.9 K | 0.04812 ± 0.0035
274.7 K | 0.0517 ± 0.0037
276.5 K | 0.06076 ± 0.0043
278.4 K | 0.06784 ± 0.0049
282.6 K | 0.09472 ± 0.0068
283.2 K | 0.09954 ± 0.0071
285.6 K | 0.1239 ± 0.0088
288.3 K | 0.1447 ± 0.011
288.7 K | 0.1514 ± 0.011
291.7 K | 0.1872 ± 0.013
293.2 K | 0.2073 ± 0.015
294.8 K | 0.2343 ± 0.017
297.8 K | 0.2886 ± 0.02
298.1 K | 0.2847 ± 0.02
300.8 K | 0.3473 ± 0.025
303.3 K | 0.4149 ± 0.029
303.9 K | 0.429 ± 0.03
307 K | 0.5176 ± 0.036
308.3 K | 0.5552 ± 0.039
309 K | 0.596 ± 0.043
313.3 K | 0.7473 ± 0.053

COC(=O)CC(C)(C)C [methyl 3,3-dimethylbutanoate]
Conditions | vapor or sublimation pressure [kPa]
273.9 K | 0.3046 ± 0.022
274.4 K | 0.3169 ± 0.023
275.9 K | 0.3519 ± 0.025
277.4 K | 0.3954 ± 0.028
278.7 K | 0.436 ± 0.031
279.5 K | 0.4645 ± 0.033
281.5 K | 0.5226 ± 0.037
282.5 K | 0.5675 ± 0.04
283.3 K | 0.5937 ± 0.042
285.5 K | 0.6878 ± 0.049
288.2 K | 0.8223 ± 0.057
288.6 K | 0.8158 ± 0.057
291.6 K | 0.9977 ± 0.071
293.2 K | 1.131 ± 0.08
294.6 K | 1.195 ± 0.084
297.7 K | 1.436 ± 0.11
298.2 K | 1.533 ± 0.11
301.8 K | 1.854 ± 0.13
303.2 K | 2.042 ± 0.14
303.8 K | 2.089 ± 0.15
306.9 K | 2.498 ± 0.18
308.2 K | 2.737 ± 0.19
309 K | 2.783 ± 0.19
313.2 K | 3.591 ± 0.25

CCCC(=O)OC [methyl butanoate]
Conditions | vapor or sublimation pressure
274.3 K | 1.06 ± 0.077 kPa
276.4 K | 1.292 ± 0.092 kPa
278.2 K | 1.397 ± 0.098 kPa
279.4 K | 1.492 ± 0.1 kPa
281.3 K | 1.627 ± 0.12 kPa
281.6 K | 1.705 ± 0.13 kPa
283.4 K | 1.854 ± 0.15 kPa
283.7 K | 1.965 ± 0.16 kPa
285.5 K | 2.102 ± 0.17 kPa
285.8 K | 2.24 ± 0.18 kPa
288.3 K | 2.537 ± 0.18 kPa and 2.523 ± 0.18 kPa and 2.466 ± 0.17 kPa
290.3 K | 2.927 ± 0.21 kPa
291.2 K | 3.085 ± 0.22 kPa and 2.937 ± 0.21 kPa
292.2 K | 3.214 ± 0.23 kPa
293.2 K | 3.382 ± 0.24 kPa
294.3 K | 3.717 ± 0.27 kPa
295.3 K | 4.065 ± 0.29 kPa
298.1 K | 4.479 ± 0.32 kPa
300.2 K | 5.224 ± 0.37 kPa
301.2 K | 5.303 ± 0.37 kPa
303.2 K | 5.697 ± 0.4 kPa

CCCCCCC(=O)OC [methyl heptanoate]
Conditions | vapor or sublimation pressure [kPa]
278.1 K | 0.03453 ± 0.0025
283.5 K | 0.05365 ± 0.0038
286.4 K | 0.06767 ± 0.0048
288.3 K | 0.0791 ± 0.0056
290.3 K | 0.09122 ± 0.0065
293.2 K | 0.1164 ± 0.0083
296.2 K | 0.1424 ± 0.01
298.2 K | 0.1642 ± 0.012
300.3 K | 0.1892 ± 0.013
303.1 K | 0.2326 ± 0.017
306.1 K | 0.2838 ± 0.02
308.2 K | 0.3321 ± 0.024
310.2 K | 0.3804 ± 0.027
313.2 K | 0.4658 ± 0.033

CCCCCC(=O)OC [methyl hexanoate]
Conditions | vapor or sublimation pressure
280.7 K | 0.1387 ± 0.0099 kPa
283.6 K | 0.1707 ± 0.012 kPa
284.6 K | 0.1839 ± 0.013 kPa
286.6 K | 0.2147 ± 0.015 kPa
287.6 K | 0.2219 ± 0.016 kPa
289.5 K | 0.2598 ± 0.018 kPa
290.5 K | 0.2793 ± 0.02 kPa and 0.2693 ± 0.019 kPa
292.5 K | 0.3111 ± 0.022 kPa
293.3 K | 0.3367 ± 0.024 kPa
293.4 K | 0.3489 ± 0.025 kPa
293.5 K | 0.3435 ± 0.024 kPa
295.4 K | 0.3851 ± 0.027 kPa
296.4 K | 0.4226 ± 0.03 kPa
298.3 K | 0.4594 ± 0.033 kPa
298.4 K | 0.4697 ± 0.033 kPa
300.3 K | 0.5403 ± 0.038 kPa
303.3 K | 0.6501 ± 0.046 kPa
304.3 K | 0.7261 ± 0.051 kPa
308.3 K | 0.8925 ± 0.063 kPa
309.3 K | 0.9193 ± 0.065 kPa
312.3 K | 1.147 ± 0.081 kPa and 1.048 ± 0.075 kPa
316.3 K | 1.458 ± 0.1 kPa
320.4 K | 1.764 ± 0.12 kPa
324.4 K | 2.217 ± 0.16 kPa
328.4 K | 2.678 ± 0.19 kPa
331.4 K | 3.178 ± 0.22 kPa

CCCCC(=O)OC [methyl pentanoate]
Conditions | vapor or sublimation pressure
274.9 K | 0.3386 ± 0.024 kPa
275.2 K | 0.3442 ± 0.024 kPa
278.2 K | 0.4198 ± 0.03 kPa
279.4 K | 0.4589 ± 0.033 kPa
281.2 K | 0.5173 ± 0.037 kPa
282.6 K | 0.5608 ± 0.04 kPa
284.2 K | 0.6396 ± 0.047 kPa
284.3 K | 0.6 ± 0.043 kPa
284.5 K | 0.6182 ± 0.044 kPa
285.5 K | 0.6907 ± 0.049 kPa
287.4 K | 0.7539 ± 0.053 kPa
288.4 K | 0.7888 ± 0.056 kPa and 0.7837 ± 0.056 kPa
288.5 K | 0.8195 ± 0.059 kPa
288.7 K | 0.8268 ± 0.061 kPa
289.2 K | 0.873 ± 0.062 kPa
290.3 K | 0.9304 ± 0.066 kPa
292.4 K | 1.029 ± 0.072 kPa
293.3 K | 1.09 ± 0.078 kPa
293.4 K | 1.125 ± 0.081 kPa
294.5 K | 1.227 ± 0.087 kPa
296.2 K | 1.327 ± 0.094 kPa
297.5 K | 1.511 ± 0.11 kPa
298.3 K | 1.517 ± 0.11 kPa
299.2 K | 1.615 ± 0.11 kPa and 1.582 ± 0.11 kPa
302.2 K | 1.974 ± 0.14 kPa and 1.937 ± 0.14 kPa
305.2 K | 2.273 ± 0.16 kPa
308.2 K | 2.653 ± 0.19 kPa
311.2 K | 3.11 ± 0.22 kPa
